# Patent US20040029908A1, “Tricyclo compounds, a process for their production and a pharmaceutical composition containing the same” (FUJISAWA PHARMACEUTICAL CO., LTD., priority 1984, published 2004)
# Columns and labels:
# [1] = Solubility (physical and chemical properties); type: physicochemical
# [2] = test system: Aspergillus fumigatus IFO 5840; assay: Antimicrobial activity, serial agar dilution method in Sabouraud agar; type: cell-based; conditions: IFO5840, 30° C., 24 hours
# Experimental: (§1) Antimicrobial activities of the tricyclo compounds (I) against various fungi were determined by a serial agar dilution method in a Sabouraud agar. Minimum inhibitory concentrations (MIC) were expressed in terms of μg/ml after incubation at 30° C. for 24 hours.
# [3] = test system: ddY mice; assay: Acute toxicities in ddY mice by intraperitoneal injection; type: in vivo
# [4] = test system: mouse MLR (C57BL/6 responder cells, mitomycin C treated BALB/C stimulator cells); assay: Suppression of in vitro Mixed Lymphocyte Reaction (MLR), 3H-thymidine uptake; type: cell-based; conditions: for IC50: Lymphocyte, mouse MLR, 68 hours, 3H-thymidine
# Experimental: The MLR test was performed in microtiter plates, with each well containing 5 ×10^5 C57BL/6 responder cells (H-2^b ), 5 ×10^5 mitomycin C treated (25μg/ml mitomycin C at 37° C. for 30 minutes and washed three times with RPMI 1640 medium) BALB/C stimulator cells (H-2^d) in 0.2 ml RPMI 1640 medium supplemented with 10% fetal calf serum, 2mM sodium hydrogen carbonate, penicillin (50 unit/ml) and streptomycin (50 μg/ml) . The cells were incubated at 37 ° C. in humidified atmosphere of 5% carbon dioxide and 95% of air for 68 hours and pulsed with ^3H-thymidine (0.5 μCi) 4 hours before the cells were collected. The object compound of this invention was dissolved in ethanol and further diluted in RPMI 1640 medium and added to the cultures to give final concentrations of 0.1 μg/ml or less.
# [5] = test system: Fusarium oxysporum; assay: Antimicrobial activity, serial agar dilution method in Sabouraud agar; type: cell-based; conditions: 30° C., 24 hours
# Experimental: as §1
# [6] = hexane (n-hexane), petroleum ether
# [7] = methanol, ethanol, acetone, ethyl acetate, chloroform, diethyl ether and benzene
# [8] = ddY mice, intraperitoneal injection
Compound,"Solubility [1, 6]","Solubility [1, 7]",Solubility ([1]; water),MIC [2],Radioactivities (mean C.P.M. ± S.E.) ([4]; 0.25 ng/ml),Suppression (%) ([4]; 0.25 ng/ml),Radioactivities (mean C.P.M. ± S.E.) ([4]; 0.500 ng/ml),Suppression (%) ([4]; 0.500 ng/ml),Radioactivities (mean C.P.M. ± S.E.) ([4]; 1 ng/ml),Suppression (%) ([4]; 1 ng/ml),Radioactivities (mean C.P.M. ± S.E.) ([4]; 10 ng/ml),Suppression (%) ([4]; 10 ng/ml),Radioactivities (mean C.P.M. ± S.E.) ([4]; 100 ng/ml),Suppression (%) ([4]; 100 ng/ml),IC50 [4],"the dead at dose of 100 mg/kg [3, 8]",also measured
"CCC1/C=C(\C)CC(C)CC(OC)C2OC(O)(C(=O)C(=O)N3CCCCC3C(=O)OC(/C(C)=C/C3CCC(O)C(OC)C3)C(C)C(O)CC1=O)C(C)CC2OC (stereo not shown) [FR-900520, 17-Ethyl-1,14-dihydroxy-12-[2-(4-hydroxy-3-methoxycyclohexyl)-1-methylvinyl)-23,25-dimethoxy-13,19,21,27-tetramethyl-11,28-dioxa-4-azatricyclo-[^22.3.1.0^4,^9) octacos-18-ene-2,3,10,16-tetraone]",Sparingly Soluble,Soluble,Insoluble,0.1 µg/mL,14987 ± 1786 C.P.M.,35.1%,9434 ± 1546 C.P.M.,59.2%,2744 ± 527 C.P.M.,88.1%,515 ± 55 C.P.M.,97.8%,175 ± 16 C.P.M.,99.2%,0.38 ng/mL,–,"the dead at dose of 100 mg/kg ([3]; mouse, in vivo, ip): could not be observed"
CO[C@H]1C[C@@H](C)C/C(C)=C/[C@@H](C)C(=O)C[C@H](O)[C@@H](C)[C@@H](/C(C)=C/[C@@H]2CC[C@@H](O)[C@H](OC)C2)OC(=O)[C@@H]2CCCCN2C(=O)C(=O)[C@]2(O)O[C@H]1[C@@H](OC)C[C@H]2C [FR-900523],Sparingly Soluble,Soluble,Insoluble,0.3 µg/mL,17721 ± 1083 C.P.M.,23.3%,11624 ± 395 C.P.M.,49.7%,5600 ± 399 C.P.M.,75.8%,156 ± 37 C.P.M.,99.3%,25 ± 12 C.P.M.,99.9%,0.5 ng/mL,could not be observed,–
C=CC[C@@H]1/C=C(\C)C[C@H](C)C[C@H](OC)[C@H]2O[C@@](O)(C(=O)C(=O)N3CCC[C@H]3C(=O)O[C@H](/C(C)=C/[C@@H]3CC[C@@H](O)[C@H](OC)C3)[C@H](C)[C@@H](O)CC1=O)[C@H](C)C[C@@H]2OC [FR-900525],Sparingly Soluble,Soluble,Insoluble,0.5 µg/mL,–,–,–,–,–,–,372 ± 32 C.P.M.,97.6%,469 ± 56 C.P.M.,97.0%,1.55 ng/mL,could not be observed,MIC [5]: 1 µg/mL; Radioactivities (mean C.P.M. ± S.E.) ([4]; 1.2 ng/ml): 10103 ± 421 C.P.M.; Suppression (%) ([4]; 1.2 ng/ml): 35.8%; Radioactivities (mean C.P.M. ± S.E.) ([4]; 2.5 ng/ml): 3564 ± 512 C.P.M.; Suppression (%) ([4]; 2.5 ng/ml): 77.4%; Radioactivities (mean C.P.M. ± S.E.) ([4]; 5 ng/ml): 828 ± 369 C.P.M.; Suppression (%) ([4]; 5 ng/ml): 94.7%
